The values below come from PubChem BioAssay (NCI).

Structures are written as SMILES. Values joined by “and” are separate entries in the source; they are usually repeats but may differ in a detail not shown here. Equal values may be shown once.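 Protocol summary: plate cells (96-well), add compound at 5 concentrations, incubate 48 h, interpolate endpoints linearly. At the GI50, growth is halved. At the TGI there is no net growth.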

Some test systems named below: DLD-1 colon; XF 498 CNS; LXFL 529 NSCLC; KM20L2 colon; HOP-18 NSCLC; DMS 273 small cell lung; DMS 114 small cell lung; RXF-631 renal; SN12K1 renal; MDA-N; P388 leukemia.
Test in all cases: NCI tumour cell line growth inhibition, 48 h

As for `CN(C)C1=NC2=S(SC(Nc3ccccc3)=N2)S1` (centres undefined), the TGI was greater than 100 µM with DLD-1 colon; 50.5 µM in the assay on XF 498 CNS; 62.9 µM in the assay with LXFL 529 NSCLC; greater than 100 µM in the assay with KM20L2 colon; 91.4 µM with HOP-18 NSCLC; 66 µM with DMS 273 small cell lung. The TGI with DMS 114 small cell lung is 42.6 µM; with RXF-631 renal it was greater than 100 µM.
Turning to `CCOC(=O)NC(=O)c1cn(CCCOC(=O)NCCCCCCNC(=O)OCCCn2cc(C(=O)NC(=O)OCC)c(=O)[nH]c2=O)c(=O)[nH]c1=O`, the TGI is greater than 100 µM in the assay with DLD-1 colon; greater than 100 µM with LXFL 529 NSCLC; greater than 100 µM in the assay with KM20L2 colon; greater than 100 µM in the assay with HOP-18 NSCLC; greater than 100 µM in the assay with DMS 273 small cell lung; 34.1 µM in the assay with DMS 114 small cell lung.
`CCOC(=O)C(=O)Nc1c(C)cccc1C(C)C`: the TGI in the assay on DLD-1 colon, with XF 498 CNS, with LXFL 529 NSCLC, in the assay with KM20L2 colon, in the assay with HOP-18 NSCLC and in the assay with DMS 273 small cell lung was greater than 100 µM in each case. Moreover, the TGI in the assay with DMS 114 small cell lung and with RXF-631 renal was greater than 100 µM in each case.
Consider `COc1ccc(C(=O)CC(=O)C(=O)Nc2ccc(C)c(C)c2)cc1`, for which the TGI in the assay with DLD-1 colon was greater than 100 µM; with LXFL 529 NSCLC, greater than 100 µM; in the assay on KM20L2 colon, greater than 100 µM; in the assay on HOP-18 NSCLC, greater than 100 µM; in the assay with DMS 273 small cell lung, greater than 100 µM; in the assay on DMS 114 small cell lung it was greater than 58.5 µM. In the assay with RXF-631 renal, the TGI is greater than 100 µM.
For `COC1=C2C[C@@H](C)C[C@@H](OC)[C@@H](O)[C@H](C)/C=C(\C)[C@@H](OC(N)=O)[C@H](OC)/C=C\C=C(/C)C(=O)NC(=CC1=O)C2=O`, the GI50 in the assay with DLD-1 colon is 0.131 µM; in the assay with XF 498 CNS, 0.0356 µM; in the assay with KM20L2 colon, less than 0.0347 µM; with HOP-18 NSCLC, 0.0288 µM; with MDA-N it was 0.00577 µM. The TGI in the assay with DLD-1 colon was 9.63 µM and 3.15 µM; in the assay on XF 498 CNS it was 1.13 µM and 0.853 µM; with LXFL 529 NSCLC, 14.1 µM; in the assay on SN12K1 renal, 2.51 µM; in the assay with KM20L2 colon, 0.99 µM and 0.886 µM; in the assay on HOP-18 NSCLC, 4.92 µM and 1.28 µM. Further, the TGI with MDA-N stood at 8.51 µM; with DMS 273 small cell lung, 2.05 µM; in the assay with DMS 114 small cell lung, 2.14 µM; with RXF-631 renal, 3.35 µM; in the assay on P388 leukemia it was 0.48 µM.
Turning to `COC(=O)CS(=O)c1ccccc1` (centres undefined), the TGI was greater than 100 µM in the assay on DLD-1 colon; greater than 100 µM in the assay on XF 498 CNS; greater than 100 µM in the assay on LXFL 529 NSCLC; 84.4 µM in the assay with DMS 273 small cell lung; 56.5 µM in the assay with DMS 114 small cell lung.
Consider `CCC[CH2][Sn]1([CH2]CCC)[O]CC(CN2CCOCC2)[O]1` (centres undefined), for which the GI50 was 4.46 µM in the assay with DLD-1 colon; 1.62 µM with XF 498 CNS; 1.11 µM in the assay on LXFL 529 NSCLC; 5.35 µM with KM20L2 colon; 3.15 µM in the assay on DMS 273 small cell lung; 1.36 µM in the assay on DMS 114 small cell lung. Also, the GI50 in the assay with RXF-631 renal is 1.41 µM. Further, the TGI worked out at 16.8 µM with DLD-1 colon; 3.11 µM in the assay on XF 498 CNS; 2.47 µM in the assay with LXFL 529 NSCLC; 19.1 µM in the assay on KM20L2 colon; 12 µM in the assay on DMS 273 small cell lung; 4.35 µM with DMS 114 small cell lung. This compound yielded a TGI in the assay with RXF-631 renal of 2.71 µM.
For the compound `O=C(O)c1cccc2cccc(C(=O)O)c12.[Hg]`, the GI50 was 8.42 µM in the assay on DLD-1 colon; 14.6 µM with LXFL 529 NSCLC; greater than 100 µM in the assay on KM20L2 colon; 18.6 µM with HOP-18 NSCLC; 15.4 µM in the assay on DMS 273 small cell lung; 3.8 µM in the assay with DMS 114 small cell lung. Also, the TGI is 23 µM in the assay with DLD-1 colon; 28.1 µM in the assay with LXFL 529 NSCLC; greater than 100 µM with KM20L2 colon; 35.3 µM in the assay with HOP-18 NSCLC; 31.4 µM in the assay with DMS 273 small cell lung; 21.5 µM with DMS 114 small cell lung.
As for `COc1cc(Nc2nc3cc(C(F)(F)F)ccc3nc2-c2ccccc2)cc(OC)c1OC`, the TGI is greater than 100 µM with DLD-1 colon; 55.2 µM with XF 498 CNS; greater than 100 µM in the assay on LXFL 529 NSCLC; greater than 100 µM in the assay on DMS 273 small cell lung; greater than 100 µM in the assay on DMS 114 small cell lung; greater than 100 µM in the assay on RXF-631 renal.
In the case of `NC(=O)CCC(NC(=O)Cc1ccccc1)C(=O)O` (centres undefined) (tested in a mixture with another compound), the TGI was greater than 8130 µM in the assay on DLD-1 colon; greater than 8130 µM in the assay with LXFL 529 NSCLC; greater than 8130 µM in the assay with KM20L2 colon; greater than 8130 µM with HOP-18 NSCLC; greater than 2470 µM with DMS 273 small cell lung; greater than 8130 µM with DMS 114 small cell lung.
For `COc1ccc(NC(=O)CC(=O)N2N=C(N(CCC#N)c3cccc(C)c3)CC2c2ccccc2)cc1` (centres undefined), the TGI in the assay with DLD-1 colon, in the assay with LXFL 529 NSCLC, in the assay with KM20L2 colon, in the assay with HOP-18 NSCLC and with DMS 273 small cell lung was greater than 100 µM throughout.
`COc1ccc(-c2cc(-c3cc(C)ccc3O)[nH]c(=O)n2)cc1`: the TGI with DLD-1 colon, in the assay with LXFL 529 NSCLC, in the assay on KM20L2 colon, in the assay on HOP-18 NSCLC, in the assay with DMS 273 small cell lung and with DMS 114 small cell lung was greater than 100 µM throughout. This compound also displayed a TGI in the assay with RXF-631 renal greater than 100 µM.
Take `OCC1OC(n2cnc3c2NC=NC[C@H]3O)CC1O` (some centres undefined): the GI50 in the assay on DLD-1 colon was greater than 588 µM; in the assay with LXFL 529 NSCLC it was greater than 588 µM; with KM20L2 colon, greater than 588 µM; with HOP-18 NSCLC, 284 µM and > 588 µM; in the assay on DMS 273 small cell lung, greater than 588 µM; with DMS 114 small cell lung, greater than 588 µM. Besides, in the assay with RXF-631 renal, the GI50 was 158 µM and > 588 µM. In addition, the TGI in the assay with DLD-1 colon is 500 µM and > 588 µM; with XF 498 CNS it was 498 µM; in the assay with LXFL 529 NSCLC, greater than 588 µM; with SN12K1 renal it was 467 µM; in the assay on KM20L2 colon, greater than 588 µM; in the assay with HOP-18 NSCLC it was 308 µM and > 588 µM. Also, the TGI with MDA-N is greater than 500 µM; with DMS 273 small cell lung it was 500 µM and > 588 µM; with DMS 114 small cell lung it was 455 µM and > 588 µM; in the assay on RXF-631 renal, 500 µM and > 588 µM; with P388 leukemia, 500 µM.
In the case of `CCCC(=O)Nc1ccc2c(c1)CN1C(=O)c3ccccc3C1=N2`, in the assay with MDA-N, the TGI is greater than 100 µM.
